± gives the standard deviation of the averaged measurements.
Assays:
AZD4547 = compound: COc1cc(CCc2cc(NC(=O)c3ccc(N4CC(C)NC(C)C4)cc3)n[nH]2)cc(OC)c1 [AZD4547]; experiment: surviving fraction relative to DMSO-only wells; higher = less growth inhibition; settings: exposure time: 5 days
Method in brief: (§1)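 Viability was scored with CellTiter-Glo luminescence and normalised to the median of DMSO-only wells as surviving fraction. Beforehand, log-phase tumour cell lines were seeded at 250–500 cells per well in 384-well plates, allowed 24 hours, and exposed continuously for five days to inhibitors at 0.5, 1, 5, 10, 50, 100, 500 and 1000 nM. Only lines whose three screens gave replicate Pearson r >0.7 and median Z' >0.3 were kept.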

MK2206 = compound: NC1(c2ccc(-c3nc4ccn5c(=O)[nH]nc5c4cc3-c3ccccc3)cc2)CCC1 [MK2206]; experiment: as above; settings: exposure time: 5 days
Method in brief: as §1

Test System | surviving fraction (AZD4547; 0.5 nM) | surviving fraction (AZD4547; 1 nM) | surviving fraction (AZD4547; 5 nM) | surviving fraction (AZD4547; 10 nM) | surviving fraction (AZD4547; 50 nM) | surviving fraction (AZD4547; 100 nM) | surviving fraction (AZD4547; 500 nM) | surviving fraction (AZD4547; 1000 nM) | surviving fraction (MK2206; 0.5 nM) | surviving fraction (MK2206; 1 nM) | surviving fraction (MK2206; 5 nM) | surviving fraction (MK2206; 10 nM) | surviving fraction (MK2206; 50 nM) | surviving fraction (MK2206; 100 nM) | surviving fraction (MK2206; 500 nM) | surviving fraction (MK2206; 1000 nM)
22RV1 PROSTATE | 1 ± 0.06 | 1.01 ± 0.059 | 1.02 ± 0.044 | 1.07 ± 0.056 | 0.998 ± 0.048 | 1.03 ± 0.053 | 1.1 ± 0.084 | 1.08 ± 0.082 | 1.04 ± 0.045 | 0.987 ± 0.09 | 0.87 ± 0.09 | 0.921 ± 0.17 | 0.707 ± 0.12 | 0.762 ± 0.064 | 0.554 ± 0.05 | 0.582 ± 0.0085
93VU HEADNECK | 1.01 ± 0.063 | 1.08 ± 0.058 | 1.08 ± 0.09 | 1.11 ± 0.05 | 1.11 ± 0.042 | 1.16 ± 0.089 | 1.1 ± 0.077 | 0.975 ± 0.086 | 1.06 ± 0.076 | 1.07 ± 0.14 | 1.1 ± 0.093 | 1.15 ± 0.048 | 1.02 ± 0.045 | 0.999 ± 0.11 | 0.789 ± 0.085 | 0.649 ± 0.038
143B BONE | 0.948 ± 0.096 | 1.011 ± 0.0042 | 1.04 ± 0.014 | 1.02 ± 0.067 | 0.921 ± 0.13 | 1.01 ± 0.06 | 0.994 ± 0.04 | 0.974 ± 0.1 | 0.912 ± 0.012 | 0.969 ± 0.042 | 0.974 ± 0.082 | 1.1 ± 0.1 | 0.957 ± 0.024 | 0.959 ± 0.064 | 0.96 ± 0.034 | 0.939 ± 0.033
A549 LUNG | 0.984 ± 0.02 | 1.03 ± 0.064 | 1.01 ± 0.039 | 1.02 ± 0.069 | 0.9867 ± 0.0075 | 1.03 ± 0.066 | 0.983 ± 0.026 | 1.031 ± 0.007 | 1.05 ± 0.023 | 1.1 ± 0.028 | 1.06 ± 0.037 | 1.081 ± 0.0074 | 1.06 ± 0.017 | 1.08 ± 0.026 | 1.06 ± 0.024 | 1.09 ± 0.042
ASKA SYNOVIAL | 1.15 ± 0.06 | 1.11 ± 0.015 | 1.2 ± 0.058 | 1.12 ± 0.021 | 1.16 ± 0.036 | 1.08 ± 0.084 | 0.877 ± 0.059 | 0.658 ± 0.041 | 0.991 ± 0.089 | 1.06 ± 0.014 | 1 ± 0.04 | 1.02 ± 0.16 | 0.771 ± 0.038 | 0.724 ± 0.064 | 0.482 ± 0.018 | 0.481 ± 0.022
BT20 BREAST | 1.12 ± 0.13 | 1.08 ± 0.071 | 1.11 ± 0.059 | 1.13 ± 0.061 | 1.05 ± 0.072 | 1.04 ± 0.072 | 1.15 ± 0.043 | 0.968 ± 0.15 | 1.14 ± 0.045 | 1.15 ± 0.07 | 1.05 ± 0.034 | 1.01 ± 0.078 | 1.11 ± 0.12 | 1.16 ± 0.052 | 1.39 ± 0.066 | 1.16 ± 0.05
BT549 BREAST | 1.16 ± 0.2 | 1.06 ± 0.055 | 1.16 ± 0.18 | 1.19 ± 0.13 | 1.04 ± 0.12 | 0.95 ± 0.096 | 0.968 ± 0.094 | 0.861 ± 0.052 | 1.07 ± 0.092 | 1.06 ± 0.048 | 0.982 ± 0.15 | 1.06 ± 0.07 | 0.837 ± 0.05 | 0.833 ± 0.091 | 0.616 ± 0.078 | 0.46 ± 0.043
CADOES1 SOFT TISSUE | 0.988 ± 0.032 | 1.02 ± 0.097 | 0.977 ± 0.1 | 0.973 ± 0.046 | 0.912 ± 0.085 | 0.955 ± 0.017 | 1.09 ± 0.11 | 0.992 ± 0.11 | 1.02 ± 0.12 | 0.925 ± 0.099 | 0.915 ± 0.097 | 0.926 ± 0.036 | 0.828 ± 0.088 | 0.815 ± 0.092 | 0.711 ± 0.077 | 0.591 ± 0.071
CAL51 BREAST | 0.9767 ± 0.007 | 0.977 ± 0.035 | 0.937 ± 0.029 | 0.849 ± 0.052 | 0.7553 ± 0.0068 | 0.738 ± 0.022 | 0.616 ± 0.021 | 0.602 ± 0.059 | 0.986 ± 0.05 | 1.09 ± 0.079 | 1.06 ± 0.031 | 1.02 ± 0.035 | 0.996 ± 0.043 | 0.993 ± 0.072 | 0.731 ± 0.027 | 0.56 ± 0.03
CAL120 BREAST | 0.945 ± 0.043 | 0.9817 ± 0.0068 | 0.937 ± 0.03 | 0.888 ± 0.025 | 0.713 ± 0.029 | 0.681 ± 0.019 | 0.552 ± 0.05 | 0.491 ± 0.039 | 0.976 ± 0.071 | 0.977 ± 0.062 | 0.991 ± 0.068 | 1.01 ± 0.06 | 0.966 ± 0.051 | 0.951 ± 0.031 | 0.859 ± 0.038 | 0.823 ± 0.043
CASKI CERVIX | 0.927 ± 0.055 | 0.951 ± 0.033 | 1.01 ± 0.014 | 1.02 ± 0.073 | 0.961 ± 0.053 | 1.03 ± 0.048 | 0.805 ± 0.02 | 0.548 ± 0.019 | 0.905 ± 0.04 | 0.97 ± 0.055 | 0.951 ± 0.065 | 0.88 ± 0.011 | 0.736 ± 0.055 | 0.627 ± 0.039 | 0.44 ± 0.047 | 0.36 ± 0.022
CHLA90 AUTONOMIC GANGLIA | 0.994 ± 0.075 | 1.04 ± 0.099 | 1.07 ± 0.07 | 1.01 ± 0.014 | 0.883 ± 0.051 | 0.692 ± 0.039 | 0.568 ± 0.029 | 0.473 ± 0.041 | 1.04 ± 0.058 | 1.01 ± 0.037 | 0.944 ± 0.013 | 0.929 ± 0.025 | 0.945 ± 0.024 | 0.997 ± 0.1 | 0.9213 ± 0.0085 | 0.947 ± 0.053
CME SYNOVIAL | 1.21 ± 0.046 | 1.09 ± 0.063 | 1.29 ± 0.11 | 1.14 ± 0.14 | 1 ± 0.075 | 0.935 ± 0.097 | 0.761 ± 0.051 | 0.724 ± 0.035 | 1.25 ± 0.18 | 1.22 ± 0.043 | 1.35 ± 0.13 | 1.35 ± 0.099 | 1.18 ± 0.085 | 1.23 ± 0.18 | 1.13 ± 0.099 | 0.901 ± 0.093
COLO320DM LARGE INTESTINE | 1.08 ± 0.027 | 1.11 ± 0.049 | 0.994 ± 0.036 | 0.997 ± 0.21 | 1.1 ± 0.076 | 1.05 ± 0.1 | 1.08 ± 0.078 | 1.1 ± 0.2 | 0.985 ± 0.038 | 1.12 ± 0.11 | 1.11 ± 0.052 | 1.08 ± 0.066 | 1.03 ± 0.15 | 0.969 ± 0.059 | 0.707 ± 0.047 | 0.557 ± 0.056
DU4475 BREAST | 1.12 ± 0.37 | 0.979 ± 0.16 | 1.03 ± 0.27 | 0.998 ± 0.13 | 1.15 ± 0.3 | 1.08 ± 0.21 | 1.11 ± 0.21 | 1 ± 0.22 | 1.07 ± 0.035 | 1.08 ± 0.094 | 0.989 ± 0.11 | 1 ± 0.015 | 0.828 ± 0.1 | 0.784 ± 0.019 | 0.469 ± 0.047 | 0.444 ± 0.015
H23 LUNG | 0.965 ± 0.059 | 1.06 ± 0.052 | 1.03 ± 0.055 | 1.04 ± 0.02 | 1.01 ± 0.037 | 1.05 ± 0.028 | 0.979 ± 0.075 | 0.964 ± 0.066 | 0.95 ± 0.072 | 1.04 ± 0.015 | 1.017 ± 0.008 | 1.03 ± 0.053 | 0.911 ± 0.043 | 0.883 ± 0.046 | 0.776 ± 0.067 | 0.6663 ± 0.0061

Source: the supplement of paper PMC6045584
